{"source": "patent US12421211B2", "about": "“Heterocyclic compounds” (Hoffmann-La Roche Inc., priority 2021, dated 2025)", "note": "Counter-ions that a name gives are not always drawn.", "data": [{"system": "Acinetobacter baumannii ATCC17961", "test": "Antimicrobial susceptibility testing: 90% growth inhibitory concentration (IC90) determination", "format": "cell-based", "settings": "Acinetobacter baumannii, ATCC17961, 16 h, 90% growth inhibitory concentration, Acinetobacter baumannii ATCC17961, Iso-Sensitest broth, OD 600 nm over 16 h; read-out: ATCC 17961 IC90", "outline": "(§1)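 A. baumannii ATCC17961 at ~5×10^5 CFU/ml in Iso-Sensitest broth exposed to 10-point twofold dilutions (e.g. 50–0.097 μM final), 35±2° C. OD600 read every 20 minutes over 16h; IC50 and IC90 derived from inhibition during logarithmic growth.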", "units": {"IC90": "nM"}, "values": [{"smiles": "Cc1nn(CC(=O)Nc2ccnnc2)cc1-c1ccc(-c2cnc(C(=O)Nc3ccc(C(=O)N4CCN(C(=O)C5CC[N+](C)(C)CC5)CC4)c(Cl)c3)n2C)c(F)c1F", "note": "[Example G33, N-[3-chloro-4-[4-(1,1-dimethylpiperidin-1-ium-4-carbonyl)piperazine-1-carbonyl]phenyl]-5-[2,3-difluoro-4-[3-methyl-1-[2-oxo-2-(pyridazin-4-ylamino)ethyl]pyrazol-4-yl]phenyl]-1-methyl-imidazole-2-carboxamide; formate]", "IC90": 440}, {"smiles": "COCCn1cc(-c2ccc(-c3cnc(C(=O)Nc4ccc(C(=O)N5CCN(C(=O)C6CC[N+](C)(C)CC6O)CC5)c(Cl)c4)n3C)c(F)c2F)c(C)n1", "note": "(stereo not shown) [Example D2, N-[3-chloro-4-[4-(3-hydroxy-1,1-dimethyl-piperidin-1-ium-4-carbonyl)piperazine-1-carbonyl]phenyl]-5-[2,3-difluoro-4-[1-(2-methoxyethyl)-3-methyl-pyrazol-4-yl]phenyl]-1-methyl-imidazole-2-carboxamide; formate]", "IC90": 210}, {"smiles": "COCCn1ncc(-c2ccc(-c3cnc(C(=O)Nc4ccc(C(=O)N5CCN(C(=O)CN6CCCC6)CC5)c(Cl)c4)n3C)c(F)c2F)c1C", "note": "[Example D28, N-[3-chloro-4-[4-(2-pyrrolidin-1-ylacetyl)piperazine-1-carbonyl]phenyl]-5-[2,3-difluoro-4-[1-(2-methoxyethyl)-5-methyl-pyrazol-4-yl]phenyl]-1-methyl-imidazole-2-carboxamide; 2,2,2-trifluoroacetic acid]", "IC90": 30}, {"smiles": "Cc1nn(CC(=O)Nc2ccc(F)nn2)cc1-c1ccc(-c2cnc(C(=O)Nc3ccc(C(=O)N4CCN(C(=O)C5CC[N+](C)(C)CC5)CC4)c(Cl)c3)n2C)cc1", "note": "[Example L1, N-[3-chloro-4-[4-(1,1-dimethylpiperidin-1-ium-4-carbonyl)piperazine-1-carbonyl]phenyl]-5-[4-[1-[2-[(6-fluoropyridazin-3-yl)amino]-2-oxo-ethyl]-3-methyl-pyrazol-4-yl]phenyl]-1-methyl-imidazole-2-carboxamide; formate]", "IC90": 206}, {"smiles": "Cn1c(-c2ccc(-c3cn[nH]c3C3CCOCC3)c(F)c2F)cnc1C(=O)Nc1ccc(C(=O)N2CCN(C(=O)C3CC[N+](C)(C)CC3)CC2)c(Cl)c1", "note": "[Example I6, N-[3-chloro-4-[4-(1,1-dimethylpiperidin-1-ium-4-carbonyl)piperazine-1-carbonyl]phenyl]-5-[2,3-difluoro-4-(5-tetrahydropyran-4-yl-1H-pyrazol-4-yl)phenyl]-1-methyl-imidazole-2-carboxamide; formate]", "IC90": 820}, {"smiles": "Cc1nn(CC(=O)Nc2ccc(F)nn2)cc1-c1ccc(-c2cnc(C(=O)Nc3ccc(C(=O)N4CCN(C(=O)C5CC[N+](C)(C)CC5)CC4)c(Cl)c3)n2C)c(F)c1F", "note": "[Example G31, N-[3-chloro-4-[4-(1,1-dimethylpiperidin-1-ium-4-carbonyl)piperazine-1-carbonyl]phenyl]-5-[2,3-difluoro-4-[1-[2-[(6-fluoropyridazin-3-yl)amino]-2-oxo-ethyl]-3-methyl-pyrazol-4-yl]phenyl]-1-methyl-imidazole-2-carboxamide; formate]", "IC90": 140}, {"smiles": "COc1ccc(-c2[nH]ncc2-c2ccc(-c3cnc(C(=O)Nc4ccc(C(=O)N5CCN(C(=O)C6CCNCC6)CC5)c(Cl)c4)n3C)c(F)n2)cc1", "note": "[Example E17, N-[3-chloro-4-[4-(piperidine-4-carbonyl)piperazine-1-carbonyl]phenyl]-5-[2-fluoro-6-[5-(4-methoxyphenyl)-1H-pyrazol-4-yl]-3-pyridyl]-1-methyl-imidazole-2-carboxamide; formic acid]", "IC90": 710}, {"smiles": "COc1ccccc1-c1[nH]ncc1-c1ccc(-c2cnc(C(=O)Nc3ccc(C(=O)N4CCN(C(=O)C5CC[N+](C)(C)CC5)CC4)c(Cl)c3)n2C)c(F)c1F", "note": "[Example I4, N-[3-chloro-4-[4-(1,1-dimethylpiperidin-1-ium-4-carbonyl)piperazine-1-carbonyl]phenyl]-5-[2,3-difluoro-4-[5-(2-methoxyphenyl)-1H-pyrazol-4-yl]phenyl]-1-methyl-imidazole-2-carboxamide; formate]", "IC90": 1500}, {"smiles": "COCCn1ncc(-c2ccc(-c3cnc(C(=O)Nc4ccc(C(=O)N5CCC(C(=O)N6CC[N+](CC(N)=O)(CC7CNC7)CC6)CC5)c(Cl)c4)n3C)c(F)c2F)c1C", "note": "[Example B24, N-[4-[4-[4-(2-amino-2-oxo-ethyl)-4-(azetidin-3-ylmethyl)piperazin-4-ium-1-carbonyl]piperidine-1-carbonyl]-3-chloro-phenyl]-5-[2,3-difluoro-4-[1-(2-methoxyethyl)-5-methyl-pyrazol-4-yl]phenyl]-1-methyl-imidazole-2-carboxamide; 2,2,2-trifluoroacetate; 2,2,2-trifluoroacetic acid]", "IC90": 95}, {"smiles": "COCCn1cc(-c2ccc(-c3cnc(C(=O)Nc4ccc(C(=O)N5CCN(C(=O)C[N+]6(C)CCC(C(N)=O)C6)CC5)c(Cl)c4)n3C)c(F)c2F)c(C)n1", "note": "(stereo not shown) [Example C7, N-[4-[4-[2-(3-carbamoyl-1-methyl-pyrrolidin-1-ium-1-yl)acetyl]piperazine-1-carbonyl]-3-chloro-phenyl]-5-[2,3-difluoro-4-[1-(2-methoxyethyl)-3-methyl-pyrazol-4-yl]phenyl]-1-methyl-imidazole-2-carboxamide; formate]", "IC90": 140}, {"smiles": "Cn1c(-c2ccc(-c3cnn4c3CCC4)c(F)c2F)cnc1C(=O)Nc1ccc(C(=O)N2CCN(C(=O)C3CC[N+](C)(C)CC3)CC2)c(Cl)c1", "note": "[Example F28, N-[3-chloro-4-[4-(1,1-dimethylpiperidin-1-ium-4-carbonyl)piperazine-1-carbonyl]phenyl]-5-[4-(5,6-dihydro-4H-pyrrolo[1,2-b]pyrazol-3-yl)-2,3-difluoro-phenyl]-1-methyl-imidazole-2-carboxamide; formate]", "IC90": 270}, {"smiles": "Cn1nccc1-c1n[nH]cc1-c1ccc(-c2cnc(C(=O)Nc3ccc(C(=O)N4CCN(C(=O)C5CC[N+](C)(C)CC5)CC4)c(Cl)c3)n2C)c(F)c1F", "note": "[Example F44, N-[3-chloro-4-[4-(1,1-dimethylpiperidin-1-ium-4-carbonyl)piperazine-1-carbonyl]phenyl]-5-[2,3-difluoro-4-[3-(2-methylpyrazol-3-yl)-1H-pyrazol-4-yl]phenyl]-1-methyl-imidazole-2-carboxamide; formate]", "IC90": 730}, {"smiles": "COCCn1cc(-c2ccc(-c3cnc(C(=O)Nc4ccc(C(=O)N5CCN(C(=O)[C@H]6C[C@@H](O)C[N+]6(C)C)CC5)c(Cl)c4)n3C)c(F)c2F)c(C)n1", "note": "[Example D9, N-[3-chloro-4-[4-[(2R,4R)-4-hydroxy-1,1-dimethyl-pyrrolidin-1-ium-2-carbonyl]piperazine-1-carbonyl]phenyl]-5-[2,3-difluoro-4-[1-(2-methoxyethyl)-3-methyl-pyrazol-4-yl]phenyl]-1-methyl-imidazole-2-carboxamide; formate]", "IC90": 300}, {"smiles": "COCCn1ncc(-c2ccc(-c3cnc(C(=O)Nc4ccc(C(=O)N5CCN(C(=O)C67CC(N)(C6)C7)CC5)c(Cl)c4)n3C)c(F)c2F)c1C", "note": "[Example D30, N-[4-[4-(3-aminobicyclo[1.1.1]pentane-1-carbonyl)piperazine-1-carbonyl]-3-chloro-phenyl]-5-[2,3-difluoro-4-[1-(2-methoxyethyl)-5-methyl-pyrazol-4-yl]phenyl]-1-methyl-imidazole-2-carboxamide; 2,2,2-trifluoroacetic acid]", "IC90": 240}, {"smiles": "Cc1c(-c2ccc(-c3cnc(C(=O)Nc4ccc(C(=O)N5CCN(C(=O)C6CC[N+](C)(C)CC6)CC5)c(Cl)c4)n3C)c(F)c2F)cnn1CC(=O)NC(C)(C)C", "note": "[Example G18, 5-[4-[1-[2-(tert-butylamino)-2-oxo-ethyl]-5-methyl-pyrazol-4-yl]-2,3-difluoro-phenyl]-N-[3-chloro-4-[4-(1,1-dimethylpiperidin-1-ium-4-carbonyl)piperazine-1-carbonyl]phenyl]-1-methyl-imidazole-2-carboxamide; formate]", "IC90": 510}, {"smiles": "COCCn1ncc(-c2ccc(-c3cnc(C(=O)Nc4ccc(C(=O)N5CCN(C(=O)C6(OC)CC[N+](C)(C)CC6)CC5)c(Cl)c4)n3C)c(F)c2F)c1C", "note": "[Example A13, N-[3-chloro-4-[4-(4-methoxy-1,1-dimethyl-piperidin-1-ium-4-carbonyl)piperazine-1-carbonyl]phenyl]-5-[2,3-difluoro-4-[1-(2-methoxyethyl)-5-methyl-pyrazol-4-yl]phenyl]-1-methyl-imidazole-2-carboxamide; formate]", "IC90": 110}, {"smiles": "COCCn1ncc(-c2ccc(-c3cnc(C(=O)Nc4ccc(C(=O)N5CCC(C(=O)NCCCc6cc[n+](CC(=O)O)c(CCCN)c6)CC5)c(Cl)c4)n3C)c(F)c2F)c1C", "note": "[Example O12, 2-[2-(3-aminopropyl)-4-[3-[[1-[2-chloro-4-[[5-[2,3-difluoro-4-[1-(2-methoxyethyl)-5-methyl-pyrazol-4-yl]phenyl]-1-methyl-imidazole-2-carbonyl]amino]benzoyl]isonipecotoyl]amino]-propyl]pyridin-1-ium-1-yl]acetic acid; formate]", "IC90": 339}, {"smiles": "Cc1n[nH]cc1-c1ccc(-c2cnc(C(=O)Nc3ccc(C(=O)N4CCN(C(=O)C[N+](C)(C)C)CC4)c(Cl)c3)n2C)c(F)c1F", "note": "[Example D35, [2-[4-[2-chloro-4-[[5-[2,3-difluoro-4-(3-methyl-1H-pyrazol-4-yl)phenyl]-1-methyl-imidazole-2-carbonyl]amino]benzoyl]piperazin-1-yl]-2-oxo-ethyl]-trimethyl-ammonium; formate]", "IC90": 170}]}, {"system": "Acinetobacter baumannii ATCC17961", "test": "Antimicrobial susceptibility testing: 90% growth inhibitory concentration (IC90) determination", "format": "cell-based", "settings": "Acinetobacter baumannii, ATCC17961, 16 h, read-out: ATCC 17961 IC90", "outline": "as §1", "units": {"IC90": "nM"}, "values": [{"smiles": "Cc1n[nH]c(C)c1-c1ccc(-c2cnc(C(=O)Nc3ccc(C(=O)N4CCN(C(=O)[C@@H]5C[C@@H](O)C[N+]5(C)C)CC4)c(Cl)c3)n2C)c(F)c1F", "note": "[Example D43, N-[3-chloro-4-[4-[(2S,4R)-4-hydroxy-1,1-dimethyl-pyrrolidin-1-ium-2-carbonyl]piperazine-1-carbonyl]phenyl]-5-[4-(3,5-dimethyl-1H-pyrazol-4-yl)-2,3-difluoro-phenyl]-1-methyl-imidazole-2-carboxamide; formate]", "IC90": 810}]}]}
